As a reminder, the CL/F is clearance divided by bioavailability, as obtained after extravascular dosing. One may read the half-life as the time in which the quantity being followed falls by half. A low value points to rapid decline. What is called Tmax is the time at which the peak concentration occurs. A word on the Cmax: it is the peak of the concentration-time curve.

The test system of one data set is prothrombin time. The data set can be described thus: Prothrombin time (STAR Neoplastin method). The class given is in vivo, human. An excerpt:
As used herein, the term “prothrombin time” (PT) refers to a blood test that measures how long it takes blood to clot. In some embodiments, a prothrombin time test can be used to measure of a patient's haemostasis. In some embodiments, PT can be used to measure the effectiveness or exposure to a blood clotting drug. Persons having skill in the art sometimes interchangeably refer to a PT test as an INR. […] Additionally, PT measurements are subject to variability based on the test reagent and laboratory test ranges determined by each institution.
(§1) Additional pharmacodynamic metrics are also gathered for each patient, including, but not limited to: prothrombin time (using the STAR Neoplastin® method) and Factor Xa activity.
Blood samples were collected and processed according to the standard protocols.

For data set [1], the target named is T1, Factor Xa (Homo sapiens, UniProt P00742).
T1 construct: host or cells: human subjects (ex vivo pharmacodynamics)
Nature of the data set: Factor Xa activity in subjects. The class given is in vivo. Conditions: concomitant verapamil vs rivaroxaban alone.
Text: as §1

Data set [2] is described as follows: Example 1 rivaroxaban-verapamil drug-drug interaction study: rivaroxaban plasma levels. Conditions: concomitant verapamil vs rivaroxaban alone. The class given is in vivo, human. The method, then: Cmax and AUC values for each dose are calculated.
Data set [3] is described as follows: Relationship between steady state rivaroxaban AUC and risk of major bleeding (FIG. 5). Type of data set: in vivo, human. The method, then:
All show the geometric mean plus or minus one standard deviation. […] These four show the geometric mean and the full minimum and maximum subject value range.
Group “c” represents the average of the three subjects in Group “b” who had the highest AUCinf, which was about 8,143 μg·hr/L. The risk of major bleeding of the subjects in Group “c” were at least 5 times higher compared to the populations in Group “a” and not even visible on this scale.

The nature of data set [4]: Plasma rivaroxaban concentration-time data and noncompartmental PK: single 20 mg rivaroxaban alone (Period I) vs with steady-state verapamil 360 mg (Period III), mild renal impairment or normal renal function. As to conditions: for CL/F / half-life / Tmax: human, in vivo; for CL/F: CL/F/kg; for half-life: t1/2. The method, then:
Subjects with either mild renal impairment or with normal renal function were enrolled.
Renal function of the subjects was determined by measuring creatinine clearance (CLcr) rates. Subjects who had CLCr≥90 ml/min were categorized as having normal renal function whereas subjects who had CLcr 50-79 ml/min were categorized as mild renal impaired. Blood samples were collected and processed according to the standard protocols.

For data set [5] the following is noted: cited from earlier work.
The conditions of data set [6]: fed subjects, studies 10989 and 11938, single 20 mg; cited from earlier work.
For data set [7] the following is noted: cited from earlier work. The source holds these as a separate data set.
The conditions of data set [8]: cited from earlier work. This is another data set of the same source.
The target in data set [9] is T1, Factor Xa. As to conditions: 10 mg dose, cited from earlier work.
Data set [10] is described as follows: Reported rivaroxaban serious bleeding adverse events. The class given is in vivo, human. Conditions: concomitantly administered patients, who are 22% of total population receiving rivaroxaban. The text has this:
8, 2015, American Heart Association, Scientific Sessions 2015, and published at http://www.abstractsonline.com/pp8/#!/3795/presentation/37668).

The conditions of data set [11]: in vivo; cited from earlier work.
For data set [12], the target named is T2, P-gp (Homo sapiens, UniProt P08183). Conditions: cell monolayers in vitro; cited from earlier work.
For data set [13], the target named is T2, P-gp. As to conditions: cited from earlier work.
Setting [14] is: Period III (rivaroxaban and verapamil), Group 2: Normal Renal Function, individual subjects.
Where [15] appears, read: single 10 mg dose with a strong CYP3A4/Pgp inhibitor.

Where two headings read alike, the source gives them in different places.

T1 sequence (P00742 235-488 limits assumed): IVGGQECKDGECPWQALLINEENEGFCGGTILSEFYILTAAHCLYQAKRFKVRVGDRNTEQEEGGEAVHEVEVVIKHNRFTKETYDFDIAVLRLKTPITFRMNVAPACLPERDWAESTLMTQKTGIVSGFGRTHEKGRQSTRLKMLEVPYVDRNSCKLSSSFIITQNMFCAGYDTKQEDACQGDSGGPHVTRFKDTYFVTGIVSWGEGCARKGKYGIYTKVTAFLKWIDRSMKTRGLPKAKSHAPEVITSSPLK
T1 sequence (P00742 41-179 partner limits assumed): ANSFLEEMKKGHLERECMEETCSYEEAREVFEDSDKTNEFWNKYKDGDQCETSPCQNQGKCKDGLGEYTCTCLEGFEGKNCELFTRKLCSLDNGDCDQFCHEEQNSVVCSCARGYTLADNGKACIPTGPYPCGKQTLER
T2 sequence (P08183 whole entry): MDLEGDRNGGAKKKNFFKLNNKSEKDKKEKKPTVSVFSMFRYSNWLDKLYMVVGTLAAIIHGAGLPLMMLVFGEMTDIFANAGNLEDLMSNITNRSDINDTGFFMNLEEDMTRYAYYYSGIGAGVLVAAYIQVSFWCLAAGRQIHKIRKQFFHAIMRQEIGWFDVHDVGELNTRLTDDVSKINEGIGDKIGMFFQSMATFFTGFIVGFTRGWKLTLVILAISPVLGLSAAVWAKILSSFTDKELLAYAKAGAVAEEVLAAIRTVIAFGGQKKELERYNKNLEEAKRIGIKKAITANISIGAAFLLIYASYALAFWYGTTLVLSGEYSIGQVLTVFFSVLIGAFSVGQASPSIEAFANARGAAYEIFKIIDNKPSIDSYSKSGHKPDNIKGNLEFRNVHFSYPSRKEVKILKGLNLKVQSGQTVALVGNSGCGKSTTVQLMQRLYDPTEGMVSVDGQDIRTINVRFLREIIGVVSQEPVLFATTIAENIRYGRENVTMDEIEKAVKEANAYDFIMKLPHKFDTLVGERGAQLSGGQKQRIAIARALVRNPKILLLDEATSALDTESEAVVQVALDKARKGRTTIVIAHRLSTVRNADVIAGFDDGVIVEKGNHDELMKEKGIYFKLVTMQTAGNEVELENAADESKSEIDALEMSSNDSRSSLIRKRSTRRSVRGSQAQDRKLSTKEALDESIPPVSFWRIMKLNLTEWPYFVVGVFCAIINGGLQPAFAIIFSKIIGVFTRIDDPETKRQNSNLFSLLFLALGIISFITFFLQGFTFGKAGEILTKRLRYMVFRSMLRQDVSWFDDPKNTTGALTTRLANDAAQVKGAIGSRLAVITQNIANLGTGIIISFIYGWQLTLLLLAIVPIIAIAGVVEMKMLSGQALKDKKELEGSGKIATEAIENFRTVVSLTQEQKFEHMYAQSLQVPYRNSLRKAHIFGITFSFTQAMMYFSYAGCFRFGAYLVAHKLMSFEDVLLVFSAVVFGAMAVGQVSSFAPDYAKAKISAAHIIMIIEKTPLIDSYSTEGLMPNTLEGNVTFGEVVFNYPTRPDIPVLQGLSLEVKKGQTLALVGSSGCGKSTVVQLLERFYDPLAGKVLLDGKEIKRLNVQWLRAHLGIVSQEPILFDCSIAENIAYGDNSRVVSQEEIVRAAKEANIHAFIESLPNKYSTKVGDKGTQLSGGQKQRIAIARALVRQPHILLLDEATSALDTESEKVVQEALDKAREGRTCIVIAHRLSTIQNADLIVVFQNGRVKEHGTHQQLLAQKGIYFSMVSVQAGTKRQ

`O=C(NC[C@H]1CN(c2ccc(N3CCOCC3=O)cc2)C(=O)O1)c1ccc(Cl)s1` [rivaroxaban, Rivaroxaban]: the “prothrombin time (PT)” value in the data set with prothrombin time (concomitant verapamil vs rivaroxaban alone) was “prolonged PT”. Also, the “relationship between pharmacokinetics (plasma concentration) and pharmacodynamics (PT)” value with prothrombin time (normal renal function and mild renal insufficiency, Day 1 and Day 15) was “clear linear relationship”. Besides, the “Factor Xa inhibition” value on Factor Xa [1] was “increased Factor Xa inhibition”. Besides, in [2], the rivaroxaban plasma concentrations entry is given as “higher rivaroxaban plasma concentrations”. The “risk of major bleeding (Group a)” value in data set [3] (AUC approximately 2,026 μg·hr/L) is “about 3%”. Further, in data set [3] (mild renal impairment, 20 mg rivaroxaban and 360 mg verapamil), the “risk of major bleeding vs Group a (Group b)” value was found to be 2.5 times. Also, the “risk of major bleeding vs Group a (Group c)” value in data set [3] (three Group b subjects with highest AUCinf) was “at least 5 times”. In data set [4] (setting [14]), this compound showed a CL/F/kg of 1.18 mL/min/kg and a CL/F of 1.11 mL/min/kg. In addition, the CL/F in data set [4] (20 mg, Period I (rivaroxaban alone), Group 2: Normal Renal Function, outlier sample excluded, arithmetic mean) was 1.8 mL/min/kg. Moreover, in data set [4] (20 mg), the half-life was 9.44 h and the Tmax was 0.5 h. Moreover, in data set [4] (Period III (rivaroxaban and verapamil), Group 2: Normal Renal Function, median), the CL/F was 1.11 mL/min/kg. In data set [4], the half-life was 6.56 h and the Tmax is 0.5 h. The rivaroxaban exposure increase in data set [5] (concomitant clarithromycin) is 54%. Besides, the rivaroxaban exposure increase in data set [5] (concomitant erythromycin) is given as 34%. Further, the rivaroxaban exposure increase in [5] (concomitant fluconazole) was 42%. The “AUC, average geometric mean (Group a)” value in data set [6] is on record as “approximately 2,026 μg·hr/L”. Further, the “Cmax, upper boundary of 90% confidence interval” value in data set [7] (20 mg rivaroxaban with food, study 11938) was 317 ng/mL. Further, in data set [7] (20 mg rivaroxaban), the “steady state AUC, upper bound of 90% confidence interval (Label A)” value was “about 3,792 μg·hr/L” and the “steady state Cmax, upper bound of 90% confidence interval” value is 275 ng/mL. Further, in data set [7] (setting [15]), the Cmax is 268 ng/mL and the “estimated steady state AUC (Label B)” value is “about 3,404 μg·hr/L”. The “steady state AUC, upper boundary of 90% confidence interval (Label C)” value in data set [7] (single 20 mg dose after a meal) is given as “about 2,448 μg·hr/L”. In addition, in [8] (in vivo), the “rivaroxaban dose eliminated in urine as unprocessed active drug” value was about 36%, the “rivaroxaban dose eliminated through active renal secretion” value was 30%, the “rivaroxaban dose eliminated through glomerular filtration” value was 6% and the “share of rivaroxaban clearance by CYP3A4” value is “approximately 18%”. Further, the “share of rivaroxaban metabolized by CYP2J2” value in data set [8] (in vivo) is listed as 14%. Also, in [8] (liver oxidative and hydrolytic pathways), the “rivaroxaban dose subject to metabolic degradation” value is on record as “Approximately two-thirds”. Further, at Factor Xa [9] (mild renal impairment), the “AUEC for Factor Xa inhibition vs healthy subjects” value was 1.5 fold. For the same compound, the “AUEC for Factor Xa inhibition vs healthy subjects” value on Factor Xa [9] (moderate renal impairment) is on record as 1.86 fold. Moreover, the “AUEC for Factor Xa inhibition vs healthy subjects” value at Factor Xa [9] (severe renal impairment) was 2.0 fold. In addition, in [10], the “share of reported rivaroxaban serious bleeding adverse events” value came out at 30%.

On to `CC[C@H]1OC(=O)[C@H](C)[C@@H](O[C@H]2C[C@@](C)(OC)[C@@H](O)[C@H](C)O2)[C@H](C)[C@@H](O[C@@H]2O[C@H](C)C[C@H](N(C)C)[C@H]2O)[C@](C)(O)C[C@@H](C)C(=O)[C@H](C)[C@@H](O)[C@]1(C)O` [erythromycin], for which the “renal elimination (unchanged)” value in data set [11] is reported as 2-15%. For the same compound, on P-gp [12], the “inhibition of P-gp-mediated efflux of rivaroxaban” value is “did not inhibit”.

Consider `COc1ccc(CCNCCCC(C#N)(c2ccc(OC)c(OC)c2)C(C)C)cc1OC` (centres unmarked) [norverapamil], for which, on P-gp [13], the “inhibitory potential toward P-gp” value is given as “have inhibitory potential toward P-gp”.
